The results in this text go back to PubChem BioAssay (NCI).

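How tested: cells in 96-well plates exposed to compound for 48 hours at five concentrations. GI50 is the concentration that inhibits growth by half. TGI: total growth inhibition.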

In the first experiment the test system is RXF 393 renal. Briefly: NCI tumour cell line growth inhibition, 48 h.
On to `CN=C(N)N/N=C(\c1ccccc1)c1ccc(Br)cc1`, for which the GI50 is 0.247 µM and the TGI came to 0.711 µM.

For `COc1cc(/C=C\[N+](=O)[O-])ccc1O`, the GI50 is 1.91 µM and the TGI came out at 3.48 µM.

As for `C=CC(=O)N[C@H]1C=C(C)c2c(-c3cnc4ccccc4c3)c3c(N)ncnc3n2C1`, the GI50 was 2.68 µM and the TGI came to 11.7 µM.

Consider `C=C1C(O)C2CCC(C)(C)C(=O)C2=C(CC(C)C)C12CC2` (stereo not given), for which the GI50 is 53.1 µM and the TGI was greater than 100 µM.

As for `CCOc1ccc(S(=O)(=O)/N=C2\C=C(SCC(=O)O)C(=O)c3ccccc32)cc1`, the GI50 is 1.8 µM and the TGI was 7.23 µM.

As for `C[C@@H]1CC[C@@H]2[C@@H]1[C@H](OC(=O)/C=C/c1ccccc1)[C@]1(c3ccccc3)C[C@@H](OC(=O)CO)[C@@]2(C)O1`, the GI50 is 0.252 µM and the TGI is 13.7 µM.

For `O=C1/C(=C/c2ccc(F)cc2)CCOc2ccc([N+](=O)[O-])cc21`, the GI50 was 1.71 µM and the TGI was found to be 3.7 µM.

Regarding `O=C(CSc1nc2ccc([N+](=O)[O-])cc2[nH]1)Nc1ccc(F)c(Cl)c1`, the GI50 is 2.34 µM and the TGI amounted to 7.84 µM.

Consider `Cc1nn(-c2ccc(F)cc2)c2ncnc(Nc3ccc(NC(=O)Nc4ccc(Cl)c(C(F)(F)F)c4)cc3)c12`, for which the GI50 was 1.86 µM and the TGI stood at 5.98 µM.

Consider `O=C(CCN1CCN(c2cnc3ccccc3n2)CC1)c1csc2ccccc12`, for which the GI50 was 18.7 µM and the TGI was determined as 49.5 µM.

On to `Cc1ccn2c3c(c(C(=O)O)c2c1)C(=O)c1ccccc1C3=O`, for which the GI50 is 10.4 µM and the TGI is greater than 100 µM.

As to `COc1cc2c3c(cccc3c1)C(=O)N(CCN1CCCC1)C2=O`, the GI50 is 1.41 µM and the TGI came to 3.54 µM.

Take `COc1cc2ncn(-c3cc(OCc4ccccc4Cl)c(C(N)=O)s3)c2cc1OC`: the GI50 was 0.102 µM and the TGI stood at 4.22 µM.

Turning to `Cc1ccc2c(C(C[N+](=O)[O-])c3cccs3)c(-c3ccccc3)[nH]c2c1` (stereo not given), the GI50 is 1.16 µM and the TGI was 4.36 µM.

The compound `N/C(CC(=O)Nc1cc(C(F)(F)F)ccc1Cl)=N\O` had a TGI greater than 100 µM.

Another experiment concerns HS 578T breast. Kind of experiment: NCI tumour cell line growth inhibition, 48 h.
As to `CN=C(N)N/N=C(\c1ccccc1)c1ccc(Br)cc1`, the GI50 was 0.38 µM and the TGI is 5.37 µM.

`COc1cc(/C=C\[N+](=O)[O-])ccc1O`: the GI50 was 4.71 µM and the TGI was found to be 28.8 µM.

For the compound `C=CC(=O)N[C@H]1C=C(C)c2c(-c3cnc4ccccc4c3)c3c(N)ncnc3n2C1`, the GI50 was 8.14 µM and the TGI stood at 46.6 µM.

`C=C1C(O)C2CCC(C)(C)C(=O)C2=C(CC(C)C)C12CC2` (stereo not given): the GI50 was 18.9 µM and the TGI stood at 92.9 µM.

On to `CCOc1ccc(S(=O)(=O)/N=C2\C=C(SCC(=O)O)C(=O)c3ccccc32)cc1`, for which the GI50 is 2.6 µM and the TGI is 6.79 µM.

For the compound `C[C@@H]1CC[C@@H]2[C@@H]1[C@H](OC(=O)/C=C/c1ccccc1)[C@]1(c3ccccc3)C[C@@H](OC(=O)CO)[C@@]2(C)O1`, the GI50 is 0.112 µM and the TGI came out at 0.708 µM.

In the case of `O=C1/C(=C/c2ccc(F)cc2)CCOc2ccc([N+](=O)[O-])cc21`, the GI50 is 4.94 µM and the TGI was determined as 47.1 µM.

Regarding `O=C(CSc1nc2ccc([N+](=O)[O-])cc2[nH]1)Nc1ccc(F)c(Cl)c1`, the GI50 was 2.45 µM and the TGI turned out to be 9.63 µM.

With `Cc1nn(-c2ccc(F)cc2)c2ncnc(Nc3ccc(NC(=O)Nc4ccc(Cl)c(C(F)(F)F)c4)cc3)c12`, the GI50 is 2.66 µM and the TGI came out at 9.47 µM.

On to `O=C(CCN1CCN(c2cnc3ccccc3n2)CC1)c1csc2ccccc12`, for which the GI50 is 43.6 µM and the TGI is greater than 100 µM.

`Cc1ccn2c3c(c(C(=O)O)c2c1)C(=O)c1ccccc1C3=O`: the GI50 is 3.71 µM and the TGI was 29.8 µM.

Take `COc1cc2c3c(cccc3c1)C(=O)N(CCN1CCCC1)C2=O`: the GI50 was 3.98 µM and the TGI was found to be 13 µM.

With `COc1cc2ncn(-c3cc(OCc4ccccc4Cl)c(C(N)=O)s3)c2cc1OC`, the GI50 is 0.609 µM and the TGI amounted to 5.77 µM.

Consider `Cc1ccc2c(C(C[N+](=O)[O-])c3cccs3)c(-c3ccccc3)[nH]c2c1` (stereo not given), for which the GI50 is 1.57 µM and the TGI came to 9.53 µM.

`N/C(CC(=O)Nc1cc(C(F)(F)F)ccc1Cl)=N\O` registered a TGI greater than 100 µM.

A further experiment has as its system COLO 205 colon. Briefly: NCI tumour cell line growth inhibition, 48 h.
Regarding `CN=C(N)N/N=C(\c1ccccc1)c1ccc(Br)cc1`, the GI50 is 0.279 µM and the TGI is 1.04 µM.

For `COc1cc(/C=C\[N+](=O)[O-])ccc1O`, the GI50 is 2.36 µM and the TGI worked out at 5.74 µM.

In the case of `C=CC(=O)N[C@H]1C=C(C)c2c(-c3cnc4ccccc4c3)c3c(N)ncnc3n2C1`, the GI50 is 15.4 µM and the TGI came out at 43.8 µM.

On to `C=C1C(O)C2CCC(C)(C)C(=O)C2=C(CC(C)C)C12CC2` (stereo not given), for which the GI50 was 22.7 µM and the TGI was 53.6 µM.

For `CCOc1ccc(S(=O)(=O)/N=C2\C=C(SCC(=O)O)C(=O)c3ccccc32)cc1`, the GI50 is 3.68 µM and the TGI came to 14 µM.

As for `C[C@@H]1CC[C@@H]2[C@@H]1[C@H](OC(=O)/C=C/c1ccccc1)[C@]1(c3ccccc3)C[C@@H](OC(=O)CO)[C@@]2(C)O1`, the GI50 is 16.1 µM and the TGI is 32.7 µM.

With `O=C1/C(=C/c2ccc(F)cc2)CCOc2ccc([N+](=O)[O-])cc21`, the GI50 is 18.8 µM and the TGI was determined as 35 µM.

`O=C(CSc1nc2ccc([N+](=O)[O-])cc2[nH]1)Nc1ccc(F)c(Cl)c1`: the GI50 was 1.6 µM and the TGI stood at 3.3 µM.

As to `Cc1nn(-c2ccc(F)cc2)c2ncnc(Nc3ccc(NC(=O)Nc4ccc(Cl)c(C(F)(F)F)c4)cc3)c12`, the GI50 is 1.87 µM and the TGI worked out at 3.95 µM.

`O=C(CCN1CCN(c2cnc3ccccc3n2)CC1)c1csc2ccccc12`: the GI50 is 24.9 µM and the TGI came to 59 µM.

For the compound `Cc1ccn2c3c(c(C(=O)O)c2c1)C(=O)c1ccccc1C3=O`, the GI50 was 2.62 µM and the TGI was 8.75 µM.

With `COc1cc2c3c(cccc3c1)C(=O)N(CCN1CCCC1)C2=O`, the GI50 is 1.48 µM and the TGI turned out to be 3.28 µM.

As for `COc1cc2ncn(-c3cc(OCc4ccccc4Cl)c(C(N)=O)s3)c2cc1OC`, the GI50 was 0.111 µM and the TGI is greater than 25 µM.

On to `Cc1ccc2c(C(C[N+](=O)[O-])c3cccs3)c(-c3ccccc3)[nH]c2c1` (stereo not given), for which the GI50 was 2.46 µM and the TGI came out at 12.6 µM.

In turn, `N/C(CC(=O)Nc1cc(C(F)(F)F)ccc1Cl)=N\O` displayed a TGI greater than 100 µM.

In a further experiment the test system is UACC-62 melanoma. Briefly: NCI tumour cell line growth inhibition, 48 h.
Regarding `CN=C(N)N/N=C(\c1ccccc1)c1ccc(Br)cc1`, the GI50 is 0.859 µM and the TGI was 9.16 µM.

On to `COc1cc(/C=C\[N+](=O)[O-])ccc1O`, for which the GI50 was 1.78 µM and the TGI turned out to be 3.99 µM.

Regarding `C=CC(=O)N[C@H]1C=C(C)c2c(-c3cnc4ccccc4c3)c3c(N)ncnc3n2C1`, the GI50 is 8.05 µM and the TGI was 24.8 µM.

For `C=C1C(O)C2CCC(C)(C)C(=O)C2=C(CC(C)C)C12CC2` (stereo not given), the GI50 was 90.8 µM and the TGI is greater than 100 µM.

Turning to `CCOc1ccc(S(=O)(=O)/N=C2\C=C(SCC(=O)O)C(=O)c3ccccc32)cc1`, the GI50 was 1.99 µM and the TGI is 3.8 µM.

Consider `C[C@@H]1CC[C@@H]2[C@@H]1[C@H](OC(=O)/C=C/c1ccccc1)[C@]1(c3ccccc3)C[C@@H](OC(=O)CO)[C@@]2(C)O1`, for which the GI50 is 14.5 µM and the TGI was determined as 33.3 µM.

With `O=C1/C(=C/c2ccc(F)cc2)CCOc2ccc([N+](=O)[O-])cc21`, the GI50 is 2.19 µM and the TGI stood at 4.01 µM.

On to `O=C(CSc1nc2ccc([N+](=O)[O-])cc2[nH]1)Nc1ccc(F)c(Cl)c1`, for which the GI50 was 1.63 µM and the TGI stood at 10.5 µM.

In the case of `Cc1nn(-c2ccc(F)cc2)c2ncnc(Nc3ccc(NC(=O)Nc4ccc(Cl)c(C(F)(F)F)c4)cc3)c12`, the GI50 is 2.65 µM and the TGI came out at 11.3 µM.

`O=C(CCN1CCN(c2cnc3ccccc3n2)CC1)c1csc2ccccc12`: the GI50 is 49.5 µM and the TGI was greater than 100 µM.

For `Cc1ccn2c3c(c(C(=O)O)c2c1)C(=O)c1ccccc1C3=O`, the GI50 was 2.44 µM and the TGI was found to be 9.13 µM.

`COc1cc2c3c(cccc3c1)C(=O)N(CCN1CCCC1)C2=O`: the GI50 was 1.79 µM and the TGI is 3.71 µM.

As to `COc1cc2ncn(-c3cc(OCc4ccccc4Cl)c(C(N)=O)s3)c2cc1OC`, the GI50 is 0.283 µM and the TGI is greater than 25 µM.

In the case of `Cc1ccc2c(C(C[N+](=O)[O-])c3cccs3)c(-c3ccccc3)[nH]c2c1` (stereo not given), the GI50 was 1.4 µM and the TGI came to 5.58 µM.

`N/C(CC(=O)Nc1cc(C(F)(F)F)ccc1Cl)=N\O`: the TGI was greater than 100 µM.

For a further experiment, the system named is U251 CNS. Briefly: NCI tumour cell line growth inhibition, 48 h.
In the case of `CN=C(N)N/N=C(\c1ccccc1)c1ccc(Br)cc1`, the GI50 is 0.375 µM and the TGI is 2.63 µM.

Consider `COc1cc(/C=C\[N+](=O)[O-])ccc1O`, for which the GI50 was 2.99 µM and the TGI is 10.6 µM.

As to `C=CC(=O)N[C@H]1C=C(C)c2c(-c3cnc4ccccc4c3)c3c(N)ncnc3n2C1`, the GI50 was 21.4 µM and the TGI was determined as 68.2 µM.

For `C=C1C(O)C2CCC(C)(C)C(=O)C2=C(CC(C)C)C12CC2` (stereo not given), the GI50 is 43.4 µM and the TGI was greater than 100 µM.

Turning to `CCOc1ccc(S(=O)(=O)/N=C2\C=C(SCC(=O)O)C(=O)c3ccccc32)cc1`, the GI50 is 3.1 µM and the TGI is 9.23 µM.

On to `C[C@@H]1CC[C@@H]2[C@@H]1[C@H](OC(=O)/C=C/c1ccccc1)[C@]1(c3ccccc3)C[C@@H](OC(=O)CO)[C@@]2(C)O1`, for which the GI50 is 14.2 µM and the TGI was 29.3 µM.

Regarding `O=C1/C(=C/c2ccc(F)cc2)CCOc2ccc([N+](=O)[O-])cc21`, the GI50 is 40.1 µM and the TGI was greater than 100 µM.

Regarding `O=C(CSc1nc2ccc([N+](=O)[O-])cc2[nH]1)Nc1ccc(F)c(Cl)c1`, the GI50 was 2.5 µM and the TGI is 12.3 µM.

Consider `Cc1nn(-c2ccc(F)cc2)c2ncnc(Nc3ccc(NC(=O)Nc4ccc(Cl)c(C(F)(F)F)c4)cc3)c12`, for which the GI50 is 1.49 µM and the TGI amounted to 3.62 µM.

As for `O=C(CCN1CCN(c2cnc3ccccc3n2)CC1)c1csc2ccccc12`, the GI50 is 47.8 µM and the TGI was greater than 100 µM.

As for `Cc1ccn2c3c(c(C(=O)O)c2c1)C(=O)c1ccccc1C3=O`, the GI50 is 15.7 µM and the TGI was greater than 100 µM.

As to `COc1cc2c3c(cccc3c1)C(=O)N(CCN1CCCC1)C2=O`, the GI50 was 2.75 µM and the TGI came to 9.59 µM.

Consider `COc1cc2ncn(-c3cc(OCc4ccccc4Cl)c(C(N)=O)s3)c2cc1OC`, for which the GI50 is 0.224 µM and the TGI came out at 10.4 µM.

Regarding `Cc1ccc2c(C(C[N+](=O)[O-])c3cccs3)c(-c3ccccc3)[nH]c2c1` (stereo not given), the GI50 is 1.72 µM and the TGI was 7.59 µM.

As to `N/C(CC(=O)Nc1cc(C(F)(F)F)ccc1Cl)=N\O`, the TGI was greater than 100 µM.
